The values that follow come from ChEMBL document CHEMBL5136985, “Natural and synthetic β-carboline as a privileged antifungal scaﬀolds” (Eur J Med Chem, 2022).

One assay relates to Phytophthora litchii. Description: Antifungal activity against Phytophthora litchii assessed as inhibition of growth rate at 100 mg/L relative to control. It counts as functional.
Another assay relates to Gaeumannomyces graminis. Description: Antifungal activity against Gaeumannomyces graminis. It counts as functional, organism-based.
For the next assay, the system named is Botrytis cinerea. Put plainly: Antifungal activity against Botrytis cinerea. It counts as functional, organism-based.
Assay [1] deals with Alternaria solani. Description: Antifungal activity against Alternaria solani relative to control. It counts as functional. Set-up: concentration or dose not given beside the values.
The test system of assay [2] is Bipolaris maydis. Put plainly: Antifungal activity against Bipolaris maydis relative to control. It counts as functional. Set-up: concentration or dose not given beside the values.
Assay [3] concerns Candida albicans. Description: Antifungal activity against Candida albicans incubated for 24 to 48 hrs by 96-well plate method. It counts as functional. The settings on record: time 24-48 hrs.
The test system of assay [4] is Cryptococcus neoformans. Put plainly: Antifungal activity against Cryptococcus neoformans incubated for 24 to 48 hrs by 96-well plate method. It counts as functional. The settings on record: time 24-48 hrs.
Assay [5] has as its system Cryptococcus deuterogattii. Description: Antifungal activity against Cryptococcus gattii VGII incubated for 24 to 48 hrs by 96-well plate method. It counts as functional, Cryptococcus gattii species complex. The settings on record: time 24-48 hrs.
In the next assay the test system is Candida tropicalis. Description: Antifungal activity against Candida tropicalis. It counts as functional.
In assay [6] the test system is Candida albicans. Put plainly: Antifungal activity against Candida albicans. It counts as functional, organism-based. As to conditions: Candida albicans.
Assay [7] deals with Cryptococcus neoformans. Description: Antifungal activity against Cryptococcus neoformans. It counts as functional.
For another assay, the system named is Candida parapsilosis. Description: Antifungal activity against Candida parapsilosis. It counts as functional. As to conditions: Lodderomyces parapsilosis.
Another assay deals with Pichia kudriavzevii. Put plainly: Antifungal activity against Candida krusei. It counts as functional.
In another assay the test system is Kluyveromyces marxianus. Put plainly: Antifungal activity against Candida kefyr. It counts as functional.
A further assay relates to Nakaseomyces glabratus. Description: Antifungal activity against Candida glabrata. It counts as functional.
The test system of assay [8] is Botryosphaeria berengeriana. Description: Antifungal activity against Physalospora pyricola assessed as inhibition rate of fungal growth at 50 mg/kg relative to control. It counts as functional.
Assay [9] has as its system Bipolaris maydis. Description: Antifungal activity against Bipolaris maydis assessed as inhibition rate of fungal growth at 50 mg/kg relative to control. It counts as functional.
Assay [10] relates to Botryosphaeria berengeriana. Put plainly: Antifungal activity against Physalospora pyricola relative to control. It counts as functional.
The test system of assay [11] is Candida albicans. Put plainly: Antifungal activity against Candida albicans incubated for 24 hrs by TTC staining method. It counts as functional.
The subject of assay [12] is Fusarium solani. Put plainly: Antifungal activity against Fusarium solani incubated for 72 hrs. It counts as functional, organism-based. As to conditions: time 72 hrs.
Assay [13] deals with Fusarium solani. Put plainly: Antifungal activity against Fusarium solani relative to control. It counts as functional.
The subject of another assay is Mucor hiemalis. Put plainly: Antifungal activity against Mucor hiemalis by 96-well plate method. It counts as functional.
Another assay deals with Curvularia lunata. Put plainly: Antifungal activity against Curvularia lunata. It counts as functional, organism-based.
A further assay relates to Metarhizium anisopliae. Put plainly: Antifungal activity against Metarhizium anisopliae assessed as reduction of growth rate relative to control. It counts as functional. Further details: scale not given: the % may be the effect or the level left.
For assay [14], the system named is Trichophyton interdigitale. Description: Antifungal activity against Trichophyton interdigitale. It counts as functional.
Assay [15] concerns Bipolaris oryzae. Put plainly: Antifungal activity against Bipolaris oryzae. It counts as functional, organism-based.
Another assay concerns Phyllosticta citricarpa. Description: Antifungal activity Phyllosticta citricarpa against assessed as diameter of zone inhibition at 100 ug per disk incubated for 24 hrs. It counts as functional. The settings on record: read-out: DIZ.
The subject of assay [16] is Saccharomyces cerevisiae. Description: Antifungal activity against Saccharomyces cerevisiae assessed as diameter of zone inhibition at 100 ug per disk incubated for 24 hrs. It counts as functional. The settings on record: read-out: DIZ.
Assay [17] deals with Colletotrichum gloeosporioides. Put plainly: Antifungal activity against Colletotrichum gloeosporioides assessed as diameter of zone inhibition at 100 ug per disk incubated for 24 hrs. As to conditions: read-out: DIZ. It counts as functional.
For assay [18], the system named is Alternaria solani. Put plainly: Antifungal activity against Alternaria solani assessed as inhibition rate of fungal growth at 50 mg/kg relative to control. It counts as functional.
In a further assay the test system is Alternaria brassicae. Description: Antifungal activity against Alternaria brassicae. It counts as functional.
For assay [19], the system named is Saccharomyces cerevisiae. Description: Antifungal activity against Saccharomyces cerevisiae. It counts as functional.
For a further assay, the system named is Alternaria alternata. Description: Antifungal activity against Alternaria alternata. It counts as functional.
Assay [20] deals with Colletotrichum gloeosporioides. Description: Antifungal activity against Colletotrichum gloeosporioides. It counts as functional.
A further assay relates to Cytospora mali. Put plainly: Antifungal activity against Valsa mali. It counts as functional.
In assay [21] the test system is Bipolaris oryzae. Put plainly: Antifungal activity against Bipolaris oryzae incubated for 7 days. It counts as functional. The settings on record: 168 h, time 7 day.

Converted amounts (≈) assume the structure as drawn.

Consider `O=C(Nc1ccccn1)c1cc2c([nH]c3ccccc32)c(-c2ccccc2)n1`, for which, in the assay with Phytophthora litchii, the inhibition at 100 µg/mL was found to be 95.9%.
On to `COC(=O)c1cc2c([nH]c3ccccc32)c(C(N)=O)n1`, for which the EC50 was determined as 0.45 µM in the assay on Gaeumannomyces graminis and 14.2 µM with Botrytis cinerea.
Consider `Cc1nccc2c1[nH]c1c([N+](=O)[O-])cccc12`, for which the Activity in the assay on Alternaria solani [1] stood at 88.9%; in the assay with Bipolaris maydis [2] it was 94.7%. In addition, the MIC (against Candida albicans [3]; in the assay with Cryptococcus neoformans [4]; in assay [5]) was 40 µg/mL (≈ 176 µM) each time.
Regarding `CCCCCCCC[C@H]1N[C@H](C(=O)OC)Cc2c1[nH]c1ccccc21`, the MIC in the assay with Candida tropicalis is 7.41 µg/mL (≈ 21.6 µM); against Candida albicans [6], 14.8 µg/mL (≈ 43.2 µM); in the assay on Cryptococcus neoformans [7], 7.41 µg/mL (≈ 21.6 µM); with Candida parapsilosis, 14.8 µg/mL (≈ 43.2 µM); against Pichia kudriavzevii, 7.41 µg/mL (≈ 21.6 µM); against Kluyveromyces marxianus, 3.67 µg/mL (≈ 10.7 µM). The molecule further had an MIC against Nakaseomyces glabratus of 3.67 µg/mL (≈ 10.7 µM).
With `CC1NC(C(=O)N/N=C/c2ccc(Cl)c(Cl)c2)Cc2c1[nH]c1ccccc21` (configuration not stated), the inhibition in vivo at 50 mg/kg in assay [8] was determined as 97%; in the assay with Bipolaris maydis [9] it was 80%. The same molecule gave an Activity in assay [10] of 97%.
In the assay with Candida albicans [11], `O=[N+]([O-])c1cccc(-c2nc(-c3n[nH]c(=S)o3)cc3c2[nH]c2ccccc23)c1` yielded an MIC of 3.1 µg/mL (≈ 7.96 µM).
`CC(=O)Oc1ccc2c(c1)c1ccnc3ccc(=O)n2c31`: the “inhibition (INH)” value with Fusarium solani [12] is listed as 86%. In the assay on Fusarium solani [13], the Activity is 86%.
In the case of `CC(C)CCCC(=O)c1nc(C(=O)O)cc2c1[nH]c1ccccc12`, in the assay on Mucor hiemalis, the MIC is 8.3 µg/mL (≈ 25.6 µM).
In turn, `CCCCCn1c2ccccc2c2cc(C)ncc21` had an EC50 in the assay on Curvularia lunata of 13.8 µg/mL (≈ 54.7 µM).
Turning to `c1ccc2c(c1)[nH]c1cnccc12` [NORHARMANE], in the assay on Metarhizium anisopliae, the Activity was found to be 11.9%. The MIC in assay [14] stood at 100 µg/mL (≈ 595 µM).
Molecule `CCCCCN1CCc2c([nH]c3ccccc23)C1` registered an EC50 in the assay on Bipolaris oryzae [15] of 110 µg/mL (≈ 454 µM).
`C=Cc1nc(C(=O)O)cc2c1[nH]c1ccccc12`: the zone of inhibition at 100 µg/disc in the assay with Phyllosticta citricarpa came to 17 mm; with Saccharomyces cerevisiae [16] it was 9 mm; in [17], 16 mm.
For `Cc1nc(/C=C/C(=O)O)cc2c1[nH]c1ccccc12`, the inhibition in vivo at 50 mg/kg in the assay with Alternaria solani [18] turned out to be 10.5%; with Bipolaris maydis [9], 9.8%. For the same molecule, the Activity in the assay with Bipolaris maydis [2] stood at 9.8%.
As to `COCC(=O)N(c1c(C)cccc1C)C(C)C(=O)OC` (configuration not stated) [METALAXYL], the inhibition at 100 µg/mL in the assay with Phytophthora litchii came out at 93.4%.
Regarding `CCCCCCCC[C@@H]1N[C@H](C(=O)OC)Cc2c1[nH]c1ccccc21`, the minimal inhibitory concentration (MIC) against Candida tropicalis is over 94.7 µg/mL; in the assay on Candida albicans [6], over 94.7 µg/mL; in the assay with Cryptococcus neoformans [7] it was 14.8 µg/mL (≈ 43.2 µM); against Candida parapsilosis it was over 94.7 µg/mL; in the assay with Pichia kudriavzevii, over 94.7 µg/mL; against Kluyveromyces marxianus it was 23.7 µg/mL (≈ 69.1 µM). Also, in the assay on Nakaseomyces glabratus, it took 23.7 µg/mL (≈ 69.1 µM) to inhibit growth (MIC).
With `CC(=O)N1CCN(c2ccc(OCC3COC(Cn4ccnc4)(c4ccc(Cl)cc4Cl)O3)cc2)CC1` (configuration not stated) [KETOCONAZOLE], the MIC against Alternaria brassicae is 12.5 µg/mL (≈ 23.5 µM); against Saccharomyces cerevisiae [19] it was 2.5 µg/mL (≈ 4.7 µM); against Alternaria alternata it was 12.5 µg/mL (≈ 23.5 µM); in assay [20] it was 12.5 µg/mL (≈ 23.5 µM); in the assay with Cytospora mali, 12.5 µg/mL (≈ 23.5 µM).
Regarding `C#CCn1c2ccccc2c2cc(C)ncc21`, in the assay with Curvularia lunata, the EC50 turned out to be 6.73 µg/mL (≈ 30.6 µM).
Turning to `CCCCCCCCN1CCc2c([nH]c3ccccc23)C1`, in the assay on Bipolaris oryzae [21], 28 µg/mL (≈ 98.4 µM) was the least that counted as inhibitory (MIC).

As usually defined, the inhibition is the drop in the measured response relative to a control, in per cent. What is called EC50 is the concentration needed to bring the measured effect to its halfway point. For orientation: MIC means the smallest concentration in the dilution series that meets the test's criterion for growth inhibition. One may read the inhibition in vivo as the share of the control response that was lost under treatment.
